Assay results from US20110044938A1 (NYCOMED GMBH, priority 2006, published 2011).

Columns and labels:
[1] = system: subclones of RKO colon adenocarcinoma cells (RKOp27 or RKOp21) arrested by Ponasterone A; assay: Alamar Blue cell viability assay, cell cycle specific mode of action: cells arrested by ectopic p27Kip1 induced by Ponasterone A versus proliferating cells; format: cell-based; details: Homo sapiens, RKO p27 induced (arrested) cells, 10 μM Ponasterone A, 72 hours, value = class bound given in Table A, read-out: −logIC50 RKO p27 induced (arrested) (converted)
How it was run: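 Viability of proliferating versus Ponasterone A (10 μM)-arrested RKOp27/RKOp21 cells after 72 h compound exposure at 37° C, in quadruplicate. Read-out is Alamar Blue fluorescence (544/590 nm) normalised to untreated cells = 100%; values as −log IC50.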

[2] = system: RKO (RKOp27) human colon adenocarcinoma cells; assay: Alamar Blue cell viability assay, anti-proliferative/cytotoxic activity on proliferating RKO subclones; format: cell-based; details: RKOp27, 72 h, RKO p27 uninduced (proliferating) cells, value = class bound given in Table A, read-out: −logIC50 RKO p27 uninduced (proliferating) (converted)
How it was run: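 Alamar Blue fluorescence (ex 544, em 590 nm) after 72 h compound exposure at 37 °C, 5% CO2, normalised to untreated controls set at 100%. Cells were seeded at 5000 per well and dosed 24 h later with serial semi-logarithmic dilutions in 10% FCS DMEM, four replicates each. −log IC50 [mol/l] was derived from concentration-effect curves.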

| SMILES | IC50 [1] [µM] | IC50 [2] [µM] |
| --- | --- | --- |
| CC(CC(=O)Nc1sc2c(c1C#N)CCC(COC(=O)NCCn1ccnc1)C2)c1ccccc1 (stereo not shown) [Example 310, (2-Imidazol-1-yl-ethyl)-carbamic acid 3-cyano-2-(3-phenyl-butanoyl-amino)-4,5,6,7-tetrahydro-benzo[b]thiophen-6-ylmethyl ester] | ≥ 10 | 0.501 to 2 |
| CC(CC(=O)Nc1sc2c(c1C#N)CCC(COC(=O)NCc1nccn1C)C2)c1ccccc1 (stereo not shown) [Example 311, (1-Methyl-1H-imidazol-2-ylmethyl)-carbamic acid 3-cyano-2-(3-phenyl-butanoylamino)-4,5,6,7-tetrahydro-benzo[b] thiophen-6-ylmethyl ester] | ≥ 10 | ≤ 0.501 |
| CC(CC(=O)Nc1sc2c(c1C#N)CCC(COC(=O)NCc1cncn1C)C2)c1ccccc1 (stereo not shown) [Example 312, (3-Methyl-3H-imidazol-4-ylmethyl)-carbamic acid 3-cyano-2-(3-phenyl-butanoylamino)-4,5,6,7-tetrahydro-benzo[b] thiophen-6-ylmethyl ester] | ≥ 10 | ≤ 0.501 |
| CC(CC(=O)Nc1sc2c(c1C#N)CCC(COC(=O)NCc1ccnn1C)C2)c1ccccc1 (stereo not shown) [Example 313, (2-Methyl-2H-pyrazol-3-ylmethyl)-carbamic acid 3-cyano-2-(3-phenyl-butanoylamino)-4,5,6,7-tetrahydro-benzo[b] thiophen-6-ylmethyl ester] | ≥ 50.1 | ≤ 0.501 |
| Cc1cc(CNC(=O)OCC2CCc3c(sc(NC(=O)CC(C)c4ccccc4)c3C#N)C2)no1 (stereo not shown) [Example 314, (5-Methyl-isoxazol-3-ylmethyl)-carbamic acid 3-cyano-2-(3-phenyl-butanoylamino)-4,5,6,7-tetrahydro-benzo[b] thiophen-6-ylmethyl ester] | ≥ 50.1 | ≤ 0.501 |
| CC(CC(=O)Nc1sc2c(c1C#N)CCC(COC(=O)NCC1CCCO1)C2)c1ccccc1 (stereo not shown) [Example 315, (Tetrahydrofuran-2-ylmethyl)-carbamic acid 3-cyano-2-(3-phenyl-butanoylamino)-4,5,6,7-tetrahydro-benzo[b]thiophen-6-ylmethyl ester] | ≥ 50.1 | 0.501 to 2 |
| CC(CC(=O)Nc1sc2c(c1C#N)CCC(COC(=O)NC(C)c1cccnc1)C2)c1ccccc1 (stereo not shown) [Example 316, (1-Pyridin-3-yl-ethyl)-carbamic acid 3-cyano-2-(3-phenyl-butanoylamino)-4,5,6,7-tetrahydro-benzo[b] thiophen-6-ylmethyl ester] | ≥ 10 | ≤ 0.501 |
| Cc1n[nH]cc1CNC(=O)OCC1CCc2c(sc(NC(=O)CC(C)c3ccccc3)c2C#N)C1 (stereo not shown) [Example 317, (3-Methyl-1H-pyrazol-4-ylmethyl)-carbamic acid 3-cyano-2-(3-phenyl-butanoylamino)-4,5,6,7-tetrahydro-benzo[b] thiophen-6-ylmethyl ester] | ≥ 10 | ≤ 0.501 |
| CC(CC(=O)Nc1sc2c(c1C#N)CCC(COC(=O)NC(C)c1ccnn1C)C2)c1ccccc1 (stereo not shown) [Example 318, [1-(2-Methyl-2H-pyrazol-3-yl)-ethyl]-carbamic acid 3-cyano-2-(3-phenyl-butanoylamino)-4,5,6,7-tetrahydro-benzo[b] thiophen-6-ylmethyl ester] | ≥ 10 | ≤ 0.501 |
| CC(CC(=O)Nc1sc2c(c1C#N)CCC(COC(=O)NCc1cccn1C)C2)c1ccccc1 (stereo not shown) [Example 319, (1-Methyl-1H-pyrrol-2-ylmethyl)-carbamic acid 3-cyano-2-(3-phenyl-butanoylamino)-4,5,6,7-tetrahydro-benzo[b] thiophen-6-ylmethyl ester] | ≥ 50.1 | ≤ 0.501 |
| Cc1nn(C)cc1CNC(=O)OCC1CCc2c(sc(NC(=O)CC(C)c3ccccc3)c2C#N)C1 (stereo not shown) [Example 320, (1,3-Dimethyl-1H-pyrazol-4-ylmethyl)-carbamic acid 3-cyano-2-(3-phenyl-butanoylamino)-4,5,6,7-tetrahydro-benzo[b]thiophen-6-ylmethyl ester] | ≥ 10 | ≤ 0.501 |
| Cc1cc(CNC(=O)OCC2CCc3c(sc(NC(=O)CC(C)c4ccccc4)c3C#N)C2)n(C)n1 (stereo not shown) [Example 321, (2,5-Dimethyl-2H-pyrazol-3-ylmethyl)-carbamic acid 3-cyano-2-(3-phenyl-butanoylamino)-4,5,6,7-tetrahydro-benzo[b] thiophen-6-ylmethyl ester] | ≥ 50.1 | ≤ 0.501 |
| CCn1nccc1CNC(=O)OCC1CCc2c(sc(NC(=O)CC(C)c3ccccc3)c2C#N)C1 (stereo not shown) [Example 322, (2-Ethyl-2H-pyrazol-3-ylmethyl)-carbamic acid 3-cyano-2-(3-phenyl-butanoylamino)-4,5,6,7-tetrahydro-benzo[b] thiophen-6-ylmethyl ester] | ≥ 50.1 | ≤ 0.501 |
| COc1cccc(C(C)CC(=O)Nc2sc3c(c2C#N)CCC(COC(=O)NCc2ccccn2)C3)c1 (stereo not shown) [Example 324, Pyridin-2-ylmethyl-carbamic acid 3-cyano-2-[3-(3-methoxy-phenyl)-butanoylamino]-4,5,6,7-tetrahydro-benzo[b] thiophen-6-ylmethyl ester] | ≥ 50.1 | 0.501 to 2 |
| COc1cccc(C(C)CC(=O)Nc2sc3c(c2C#N)CCC(COC(=O)NCc2cccnc2)C3)c1 (stereo not shown) [Example 325, Pyridin-3-ylmethyl-carbamic acid 3-cyano-2-[3-(3-methoxy-phenyl)-butanoylamino]-4,5,6,7-tetrahydro-benzo[b]thiophen-6-ylmethyl ester] | ≥ 50.1 | 0.501 to 2 |
| COc1cccc(C(C)CC(=O)Nc2sc3c(c2C#N)CCC(COC(=O)NCc2ccncc2)C3)c1 (stereo not shown) [Example 326, Pyridin-4-ylmethyl-carbamic acid 3-cyano-2-[3-(3-methoxy-phenyl)-butanoylamino]-4,5,6,7-tetrahydro-benzo[b]thiophen-6-ylmethyl ester] | ≥ 10 | 0.501 to 2 |
| COc1cccc(C(C)CC(=O)Nc2sc3c(c2C#N)CCC(COC(=O)NCCc2cccnc2)C3)c1 (stereo not shown) [Example 327, (2-Pyridin-3-yl-ethyl)-carbamic acid 3-cyano-2-[3-(3-methoxy-phenyl)-butanoylamino]-4,5,6,7-tetrahydro-benzo[b]thiophen-6-ylmethyl ester] | ≥ 50.1 | 0.501 to 2 |
| COc1cccc(C(C)CC(=O)Nc2sc3c(c2C#N)CCC(COC(=O)NCC2CCOCC2)C3)c1 (stereo not shown) [Example 328, (Tetrahydro-pyran-4-ylmethyl)-carbamic acid 3-cyano-2-[3-(3-methoxy-phenyl)-butanoyl-amino]-4,5,6,7-tetrahydro-benzo[b]thiophen-6-ylmethyl ester] | ≥ 50.1 | 0.501 to 2 |
| COc1cccc(C(C)CC(=O)Nc2sc3c(c2C#N)CCC(COC(=O)NC2CCOCC2)C3)c1 (stereo not shown) [Example 329, (Tetrahydro-pyran-4-yl)-carbamic acid 3-cyano-2-[3-(3-methoxy-phenyl)-butanoyl-amino]-4,5,6,7-tetrahydro-benzo[b] thiophen-6-ylmethyl ester] | ≥ 50.1 | 0.501 to 2 |
| COc1cccc(C(C)CC(=O)Nc2sc3c(c2C#N)CCC(COC(=O)NCc2nccn2C)C3)c1 (stereo not shown) [Example 330, (1-Methyl-1H-imidazol-2-ylmethyl)-carbamic acid 3-cyano-2-[3-(3-methoxy-phenyl)-butanoylamino]-4,5,6,7-tetrahydro-benzo[b] thiophen-6-ylmethyl ester] | ≥ 10 | 0.501 to 2 |
